Target: T1, Ectonucleotide pyrophosphatase/phosphodiesterase family member 1 (Homo sapiens, UniProt P22413)
T1 sequence (P22413 whole entry): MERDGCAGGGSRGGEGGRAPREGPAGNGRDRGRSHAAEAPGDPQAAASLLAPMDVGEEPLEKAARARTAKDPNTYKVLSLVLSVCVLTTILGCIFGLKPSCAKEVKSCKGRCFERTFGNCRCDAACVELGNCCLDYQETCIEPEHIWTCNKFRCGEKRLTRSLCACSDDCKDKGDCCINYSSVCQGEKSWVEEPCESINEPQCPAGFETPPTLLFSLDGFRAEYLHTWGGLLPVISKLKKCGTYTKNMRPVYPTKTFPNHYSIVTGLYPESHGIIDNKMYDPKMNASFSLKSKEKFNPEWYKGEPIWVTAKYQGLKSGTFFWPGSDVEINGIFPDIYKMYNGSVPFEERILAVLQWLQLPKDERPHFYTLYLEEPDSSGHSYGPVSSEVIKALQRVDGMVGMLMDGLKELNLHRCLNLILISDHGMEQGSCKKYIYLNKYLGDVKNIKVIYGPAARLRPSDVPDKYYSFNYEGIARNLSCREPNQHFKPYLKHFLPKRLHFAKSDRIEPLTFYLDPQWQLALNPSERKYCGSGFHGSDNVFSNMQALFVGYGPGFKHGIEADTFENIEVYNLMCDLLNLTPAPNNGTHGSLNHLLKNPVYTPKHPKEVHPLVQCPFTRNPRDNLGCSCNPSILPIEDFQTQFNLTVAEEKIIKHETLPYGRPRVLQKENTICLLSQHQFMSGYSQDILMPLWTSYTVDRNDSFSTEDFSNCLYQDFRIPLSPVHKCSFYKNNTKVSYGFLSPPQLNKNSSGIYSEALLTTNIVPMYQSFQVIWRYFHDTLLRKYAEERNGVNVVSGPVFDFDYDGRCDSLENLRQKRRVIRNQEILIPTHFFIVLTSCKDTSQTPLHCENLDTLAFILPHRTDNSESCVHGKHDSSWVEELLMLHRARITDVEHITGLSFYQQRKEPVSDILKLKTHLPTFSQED
Experiment: Inhibition of human recombinant ENPP1 at pH 7.5

Which IC50 does the source give for `COc1cc2nccc(Nc3ccc(CC(=O)NO)cc3)c2cc1OC` [US20240383893, Compound A-1] here?
The IC50 was 89 nM.
